Assay results taken from patent US6482814B1, “Biocidal composition and its use” (Avecia Limited, priority 1998, dated 2002).

How the values were obtained:
Alternaria alternata [1] = assay: Determination of MIC (microtitre doubling dilution), fungi; assay type: cell-based; details: chemical alone; visual growth after 48 hours at 25° C.
Protocol: (§1) Bacteria were grown to stationary phase (18 hours) in nutrient broth to give approximately 10^9 colony forming units per ml (CFU/ml). A 0.1% (v/v) inoculum was used to seed fresh medium and 100 μl was then added to each well of a microtitre plate, except for the first well which contained 200 μl. By using a doubling dilution technique, the concentration of the chemical under investigation was varied in each well along the ordinate axis. The presence or absence of bacterial growth was determined by visual inspection after 24 hours incubation at 37° C.
(§2) The presence or absence of fungal growth was determined by visual inspection after incubation for 48 hours at 25° C.

Aspergillus niger [2] = assay: as above; assay type: cell-based; details: chemical alone; visual growth after 48 hours at 25° C.
Protocol: as §1, §2

Aureobasidium pullulans = assay: as above; assay type: cell-based; details: chemical alone; visual growth after 48 hours at 25° C.
Protocol: as §1, §2

Pseudomonas aeruginosa [3] = assay: Determination of MIC (microtitre doubling dilution), bacteria; assay type: cell-based; details: chemical alone; visual growth after 24 hours at 37° C.
Protocol: as §1

Aspergillus niger [4] = assay: Determination of FIC (10x10 matrix, isobologram); assay type: cell-based; details: for concentration in the optimal composition: component of the combination BBIT + ZHMT; for Optimal FIC Concentration: component of the combination BBIT + ZO
Description: (§3) The composition of the present invention has antimicrobial properties and has been found particularly effective against deteriogens for plastics materials, especially in soil burial applications. […] The FIC is the ratio of the amount of each component in the composition relative to its Minimum Inhibitory Concentration (MIC) when used alone. […] When the sum of the FIC values is below one, the mixture is synergistic and when the sum of the FIC values is greater than one, the mixture is antagonistic. The FIC values are preferably determined by constructing an isobologram wherein each component in a matrix array is varied stepwise from a concentration in excess of the MIC down to zero ppm.
(§4) A matrix was constructed in a 10×10 array in microtitre wells wherein the concentration of each chemical was varied stepwise by serial dilution from a concentration of twice the MIC down to zero. As each microtitre plate contains only 96 wells the combination of the two compounds making up the extreme concentrations (highest and lowest) were omitted. Each mixture (100 μl) was added to the plate so that the total volume was maintained at 200 μl. By transferring 100 μl from each well to the adjacent well containing 100 μl nutrient the concentration of the chemical was reduced from twice the MIC to zero in a stepwise manner.
(§5) The presence or absence of growth was determined visually after incubation. The plates containing bacteria were incubated for 16-24 hours at 37° C. and the plates containing fungi were incubated for 40-72 hours at 25° C. From the matrix an isobologram was created and the FIC for each chemical of the composition calculated. The FIC is the ratio of the concentration of chemical which inhibits growth when applied as a combination of chemicals relative to the MIC for that chemical when applied alone.
(§6) The FIC values for the combination of N-n-butyl-1,2-benzisothiazolin-3-one (BBIT) and the 2:1 zinc complex of 3-hydroxy-4-methylthiazol-2(3H)-thione against a bacterium and a fungus are recorded in Tables 2 and 3, respectively.
(§7) The FIC values for N-n-butyl-1,2-benzisothiazolin-3-one and the 2:1 zinc complex of 1-hydroxypyridine-2-thione were determined in similar manner to that described in Example 1.

Pseudomonas aeruginosa [5] = assay: Determination of FIC (10x10 matrix, isobologram); assay type: cell-based; details: for concentration in the optimal composition: component of the combination BBIT + ZHMT; for Optimal FIC Concentration: component of the combination BBIT + ZO
Description: as §3, §4, §5, §6, §7

Alternaria alternata [6] = assay: Determination of FIC (10x10 matrix, isobologram); assay type: cell-based; details: component of the combination BBIT + ZO
Description: as §3
A matrix was constructed in a 10×10 array in microtitre wells wherein the concentration of each chemical was varied stepwise by serial dilution from a concentration of twice the MIC down to zero. As each microtitre plate contains only 96 wells the combination of the two compounds making up the extreme concentrations (highest and lowest) were omitted. […]
The presence or absence of growth was determined visually after incubation. […] From the matrix an isobologram was created and the FIC for each chemical of the composition calculated. […]
as §7

[7] = test system: mixed inoculum of Aureobasidium pullulans, Fusarium enicillium funicularum, Scopulariopsis brevicaulis and Streptoverticillium waksmanii; assay: Soil burial of plasticised PVC strips, weight loss; details: PVC strip, 3000 ppm
Protocol: Polvinylchioride sheets were prepared by callendaring the following mixture at 160° C.
100 parts Polyvinylchloride (Evipol SH65/20 ex EVC)
25 parts Dioctylphthalate (ex BP Chemicals)
25 parts Dioctyladipate (ex BP Chemicals)
2 parts Mixed Ca/Zn salt Lankromark LN138 as stabiliser (ex Lankro Chem)
3 parts Lankroflex ED6 as stabiliser/plasticiser (ex Lankro Chem)
5 parts Calcium stearate (ex Aldrich)
0.2 parts Stearic acid (ex Aldrich)
Sheets were fabricated with and without a 1:1 mixture of N-n-butyl-1,2-benzisothiazolin 3-one (BBIT) and the 2:1 zinc complex of 1-hydroxypyridine-2-thione (ZO). […]
Strips of the PVC (8 parts, 12.5×5 cm) were weighed to 4 decimal places, folded and buried in potting compost (John Innes No 2) in a plastic humidity chamber. The compost was sprayed with a mixed inoculum of Aureobasidium pullulans, Fusarium enicillium funicularum, Scopulariopsis brevicaulis and Streptoverticillium waksmanii and incubated at 25° C. The PVC strips were examined at 4 weeks intervals when they were cleaned, dried and weighed. The weight loss is recorded in Table 5 below.

MIC (Aspergillus niger [2]) [ppm]	MIC (Pseudomonas aeruginosa [3]) [ppm]	Compound	MIC (Alternaria alternata [1]) [ppm]	MIC (Aureobasidium pullulans) [ppm]	concentration in the optimal composition (Aspergillus niger [4]) [ppm]	Optimal FIC Concentration (Aspergillus niger [4]) [ppm]	concentration in the optimal composition (Pseudomonas aeruginosa [5]) [ppm]	Optimal FIC Concentration (Pseudomonas aeruginosa [5]) [ppm]	Optimal FIC Concentration (Alternaria alternata [6]) [ppm]	Weight Loss ([7]; 0 weeks) [%]	Weight Loss ([7]; 4 weeks) [%]	Weight Loss ([7]; 8 weeks) [%]	Weight Loss ([7]; 12 weeks) [%]	Weight Loss ([7]; 16 weeks) [%]
16	16	Cc1csc(=S)n1[O-].Cc1csc(=S)n1[O-].[Zn+2] [ZHMT, 2:1 zinc complex of 3-hydroxy-4-methylthiazol-2(3H)-thione]			5.9		10.6							
11	33.5	[O-]n1ccccc1=S.[O-]n1ccccc1=S.[Zn+2] [ZO, 2:1 zinc complex of 1-hydroxypyridine-2-thione]	55	1.5		8.3		16.4	22	0	0.3	0.8	1.5	2.3

Compound	MIC (Aspergillus niger [2]) [ppm]	MIC (Pseudomonas aeruginosa [3]) [ppm]	MIC (Alternaria alternata [1]) [ppm]	MIC (Aureobasidium pullulans) [ppm]	concentration in the optimal composition (Aspergillus niger [4]) [ppm]	Optimal FIC Concentration (Aspergillus niger [4]) [ppm]	concentration in the optimal composition (Pseudomonas aeruginosa [5]) [ppm]	Optimal FIC Concentration (Pseudomonas aeruginosa [5]) [ppm]	Optimal FIC Concentration (Alternaria alternata [6]) [ppm]	Weight Loss ([7]; 0 weeks) [%]	Weight Loss ([7]; 4 weeks) [%]	Weight Loss ([7]; 8 weeks) [%]	Weight Loss ([7]; 12 weeks) [%]	Weight Loss ([7]; 16 weeks) [%]
CCCCn1sc2ccccc2c1=O [BBIT, N-n-butyl-1,2-benzisothiazolin-3-one]	44.5	444	67	3	17.4	5.3	111	111	22	0	1.2	2.8	5.6	8.1
